From publication PMC9354042, “Discovery of BRAF/HDAC Dual Inhibitors Suppressing Proliferation of Human Colorectal Cancer Cells” (Frontiers in Chemistry, 2022) come the findings set out here.

The test system of one test is HCT116 cells. Description: Antiproliferation CCK-8 assay, HCT116. It counts as cell-based. The conditions noted are these: Homo sapiens, HCT-116; CCK-8, 72 h, HCT116 (wild-type BRAF); means of three independent experiments; read-out: Cellular IC50 HCT116. As for the experimental part:
HCT116 and HT-29 cells were obtained from the Shanghai Cell Bank (Type Culture Collection (TCC), Chinese Academy of Sciences) and cultured in DMEM (10–013-CVR, corning) supplemented with 10% fetal bovine serum (04-001-1A, BI), 1% penicillin/streptomycin (03-031-1B, BI).
The cells in the logarithmic phase were placed in 96-well plates (∼3000 cells/well) in a complete medium. After incubation overnight, the cells were exposed to the corresponding compounds or vehicle control at the indicated concentration for a further 72 h. Cell proliferation was evaluated using Cell Counting Kit 8 (CCK8, CK04, Dojindo Laboratories, Kumamoto, Japan). OD450 and OD650 were determined using a microplate reader. Absorbance rate (A) for each well was calculated as OD450 −OD650. […] Each IC50 value is expressed as mean ± SD. As is the absorbance rate of the test compound well, Ac is the absorbance rate of the well without either the cell or test compound, and Ab is the absorbance rate of the well with the cell and vehicle control.

In another test the target is T1, HDAC8 (Homo sapiens, UniProt Q9BY41).
T1 construct: purchased BPS Bioscience
T1 sequence (Q9BY41 1-377): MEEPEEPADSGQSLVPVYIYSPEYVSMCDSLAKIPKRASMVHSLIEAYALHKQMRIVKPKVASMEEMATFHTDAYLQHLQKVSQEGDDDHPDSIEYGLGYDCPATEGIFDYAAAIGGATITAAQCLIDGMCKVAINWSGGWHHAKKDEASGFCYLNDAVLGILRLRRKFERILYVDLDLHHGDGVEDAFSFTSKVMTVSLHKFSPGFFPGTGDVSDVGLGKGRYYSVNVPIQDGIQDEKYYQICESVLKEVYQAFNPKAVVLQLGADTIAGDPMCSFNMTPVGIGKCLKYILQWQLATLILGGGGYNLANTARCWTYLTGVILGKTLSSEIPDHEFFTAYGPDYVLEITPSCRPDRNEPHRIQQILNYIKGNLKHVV
Nature of the test: HDAC8 fluorescent-based enzymatic activity assay. It is filed as biochemical. The note with it: Table 3 isoform panel; read-out: Enzyme inhibition HDAC8 (Class I). As for the experimental part:
The purified recombinant Human HDACs and their corresponding substrates were purchased from BPS Bioscience (BPS Bioscience Inc., United States). The assays were carried out in a 384-well format using the BPS fluorescent–based HDAC activity assay according to the manufacturer’s protocol. In brief, […] of the HDAC reaction mixture was composed of HDAC assay buffer, […] BSA, serial diluted test compounds, appropriate concentration of HDACs, and […] fluorogenic substrate, the mixture was incubated at 37°C for 60 min, and then stopped by the addition of developer containing trypsin and TSA. After 20 min of incubation, the fluorescence was detected at the excitation wavelength of 360 nm and the emission wavelength of 460 nm using the EnVision Multilabel Reader (PerkinElmer Inc., United States). The analytical software, GraphPad Prism 5.0 (GraphPad Software, Inc., United States) was used to generate IC50 value via non-linear regression analysis.

In test [1] the test system is Ac-histone H3, Ac-α-tubulin, p-ERK in HCT116 cells. Nature of the test: Western blot analysis of HDAC and RAF pathway in HCT116 cells. It is filed as cell-based, human. As to the method:
FIGURE 3 Characterization of dual inhibition of HDAC and RAF pathway. Western blot analysis of 14b in HCT116 cells (A) and in HT-29 cells (B). Cells were treated with 0 μM, 0.12 μM, 0.37 μM, 1.1 μM, 3.3 μM, and 10 μM of drugs and incubated for 6 h. The cell lysis was subjected to Western blot analysis.
The cells were treated with various concentrations of 14b for 6 h. Then, the cells were lysed using 1×SDS sample lysis buffer (CST recommended) with protease and phosphatase inhibitors. Cell lysates were loaded and electrophoresed onto 8–12% SDS-PAGE gel, and then the separated proteins were transferred to a PVDF film. The film was blocked with 5% BSA (Sigma-Aldrich, St. Louis, MO, United States) in a TBS solution containing 0.5% Tween-20 for 4 h at room temperature, then incubated with the corresponding primary antibody (1:1000–1:200) overnight at 4°C. After washing with TBST, HRP-conjugated secondary antibody was incubated for 2 h. The protein signals were visualized by the ECL Western Blotting Detection Kit (Thermo Scientific, Grand Island, NY, United States), and detected with Amersham Imager 600 system (GE, Boston, MA, United States).
In general terms: A western blot detects proteins with antibodies after separation by electrophoresis.

As for `CC(C)(C)c1nc(-c2cccc(NS(=O)(=O)c3c(F)cccc3F)c2F)c(-c2ccnc(NCCCCCCC(=O)NO)n2)s1` [14b, 7-{[4-(2-(Tert-Butyl)-4-(3-((2,6-Difluorophenyl)Sulfonamido)-2-Fluorophenyl)Thiazol-5-yl)Pyrimidin-2-yl]Amino}-N-Hydroxyheptanamide], the IC50 in the test on HCT116 cells came out at 1.68 µM. The IC50 on HDAC8 is 3 µM. Also, the “expression of BRAF” value in test [1] (HCT116 cells) was “did not affect the expression of BRAF itself”. In addition, in test [1] (HCT116 cells (wild-type BRAF, K-RAS G13D), 0.12-10 μM, 6 h), the “phosphorylation of ERK (p-ERK)” value was “significantly inhibited phosphorylation of ERK”. In test [1] (HCT116 cells, 0.12-10 μM, 6 h), the “acetylated histone H3 (Ac-histone H3)” value is “upregulated” and the “acetylated α-tubulin (Ac-α-tubulin)” value was “upregulated”.
